Assay results from patent publication US20250034139A1, “AMINE COMPOUNDS HAVING ANTI-INFLAMMATORY, ANTIFUNGAL, ANTIPARASITIC, AND ANTICANCER ACTIVITY” (PHARMA CINQ, LLC, priority 2013, published 2025).

What was measured:
THP-1 cells = assay: Example D: LPS-triggered THP-1 cell death assay, acute/5-hour and chronic/48-hour; type: cell-based, Human; conditions: 10 ng/ml LPS, 0.1 μM test compound, 48 hours
Protocol: Compounds of the invention were tested at 0.1 μM versus AC in the LPS-triggered THP-1 cell death assay. Both acute/5-hour and chronic/48-hour phases of cell death were assessed. Compounds were screened in batches with DMSO as the negative control and AC as the high activity control.

[1] = system: 4T1 murine breast cancer cells; assay: Example S: in vitro anticancer screen, 4T1 cells, Wst1; type: cell-based, mouse; conditions: Mus musculus, 4T1, 18 h, 18 hr, Wst1; for viability at 1 µM: read-out: 4T1 1 μM, percent of cancer cell survival relative to vehicle treated cells; for viability at 5 µM: read-out: 4T1 5 μM, percent of cancer cell survival relative to vehicle treated cells
Method in brief: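 4T1 cells seeded at 1×10^4/well were exposed to compound at 1 μM or 5 μM for 18 hr after plating. Wst1 tetrazolium dye was then added for about 2 hr and absorbance read at 450 nm (reference 630 nm). Values are percent survival relative to vehicle-treated cells.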

[2] = system: PC3 human prostate cancer cells; assay: Example S: in vitro anticancer screen, PC-3 cells, Wst1; type: cell-based; conditions: Homo sapiens, PC-3, approximately 20 hours, Wst1, read-out: PC-3, percent of cancer cell survival relative to vehicle treated cells
Protocol: Activity against PC3 human prostate cancer cells in vitro was assessed by a similar method. PC-3 prostate cancer cells were plated at 2×10^4 cells/well in 96 well flat bottom tissue culture plates, and incubated for approximately 20 hours with vehicle or test compounds at concentrations of 0.4, 0.5 or 2.5 μM as indicated for specific compounds in the right-hand column of Table 37. A 1/10th volume of Wst1 dye was added/well and incubated for two hours in the cell culture incubator. Samples were analyzed in triplicate on an EL800 Universal Microplate Reader at 450 nm, reference wavelength 630 nm.
Numerical values in the Table 37 represent percent of cancer cell survival relative to vehicle treated cells at the indicated concentrations, with values under 100 indicating anticancer cytotoxic activity at the drugs concentrations tested.

[3] = system: PC-3 prostate cancer cells; assay: Example T: sensitisation of PC-3 cells to doxorubicin, oxaliplatin, paclitaxel or vincristine, Wst1; type: cell-based, human; conditions: PC-3 cells, 72 hours; for viability at 0.4 µM: compound 0.4 μM alone; for Doxorubicin 3.5 μM: percent cell survival / Oxaliplatin 100 μM: percent cell survival / Paclitaxel 50 μM: percent cell survival / Vincristine 100 nM: percent cell survival: chemotherapy agent alone normalized to 100%; for viability at 2.5 µM: compound 2.5 μM alone
[4] = Homo sapiens, Wst1, vehicle = 100, read-out: No Chemo: percent cell survival
[5] = compound 0.4 μM + doxorubicin 3.5 μM
[6] = compound 0.4 μM + oxaliplatin 100 μM
[7] = compound 0.4 μM + paclitaxel 50 μM
[8] = compound 0.4 μM + vincristine 100 nM
[9] = compound 2.5 μM + doxorubicin 3.5 μM
[10] = compound 2.5 μM + oxaliplatin 100 μM
[11] = compound 2.5 μM + paclitaxel 50 μM
[12] = compound 2.5 μM + vincristine 100 nM

| Compound | Viable cell percent change, Chronic/48-hour, Mean (THP-1 cells) [%] | viability at 1 µM [1] [%] | viability at 5 µM [1] [%] | viability at 0.4 µM [2] [%] | viability at 0.4 µM [3, 4] [%] | Doxorubicin 3.5 μM: percent cell survival [3, 5] [%] | Oxaliplatin 100 μM: percent cell survival [3, 6] [%] | Paclitaxel 50 μM: percent cell survival [3, 7] [%] | Vincristine 100 nM: percent cell survival [3, 8] [%] | viability at 2.5 µM [2] [%] | viability at 2.5 µM [3, 4] [%] | Doxorubicin 3.5 μM: percent cell survival [3, 9] [%] | Oxaliplatin 100 μM: percent cell survival [3, 10] [%] | Paclitaxel 50 μM: percent cell survival [3, 11] [%] | Vincristine 100 nM: percent cell survival [3, 12] [%] | also measured |
| --- | --- | --- | --- | --- | --- | --- | --- | --- | --- | --- | --- | --- | --- | --- | --- | --- |
| Fc1ccccc1OCCCCCCCCNc1ccnc2ccccc12 [DB, N-[8-(2-Fluorophenoxy)octyl]quinolin-4-amine] | 20.47 | 20.1 | 22.2 | 24.7 | 24.7 | 56 | 62.3 | 40.3 | 29.6 |  |  |  |  |  |  |  |
| c1ccc(Oc2ccccc2Nc2ccnc3ccccc23)cc1 [DF, N-(2-Phenoxyphenyl)quinolin-4-amine] | 39.26 | 27.1 | 20.8 | 102 | 102 | 88.7 | 96.5 | 89.4 | 95.4 |  |  |  |  |  |  |  |
| c1ccc(COc2ccc(Nc3ccnc4ccccc34)cc2)cc1 [DJ, N-[4-(Benzyloxy)phenyl]quinolin-4-amine] | 22.32 | 89 | 66.9 |  |  |  |  |  |  | 85.9 | 85.9 | 116.2 | 137.1 | 137.1 | 115.3 |  |
| CCCCCCOc1ccc(Nc2ccnc3ccccc23)cc1 [DL, N-[4-(Hexyloxy)phenyl]quinolin-4-amine] | 61.01 | 70.9 | 21 |  |  |  |  |  |  | 43 | 43 | 193.5 | 172.6 | 164.8 | 164.9 |  |
| c1ccc(COc2cccc(Nc3ccnc4ccccc34)c2)cc1 [DM, N-[3-(Benzyloxy)phenyl]quinolin-4-amine] | 34.67 | 128 | 47.8 |  |  |  |  |  |  | 45.6 | 45.6 | 79.2 | 91.1 | 105.4 | 92.1 |  |
| CCCCCCOc1cccc(Nc2ccnc3ccccc23)c1 [DN, N-[3-(Hexyloxy)phenyl]quinolin-4-amine] | 77.15 | 104 | 56.7 |  |  |  |  |  |  | 31.7 | 31.7 | 64.1 | 78 | 64.7 | 72.3 |  |
| c1ccc(COc2ccccc2Nc2ccnc3ccccc23)cc1 [DO, N-[2-(Benzyloxy)phenyl]quinolin-4-amine] | 36.46 | 116 | 35.2 |  |  |  |  |  |  | 59.2 | 59.2 | 79.9 | 89.9 | 93.4 | 90.1 |  |
| CCCCCCOc1ccccc1Nc1ccnc2ccccc12 [DP, N-[2-(Hexyloxy)phenyl]quinolin-4-amine] | 42.36 | 72.5 | 25.4 |  |  |  |  |  |  | 37.5 | 37.5 | 65.3 | 77.4 | 64.6 | 74.1 |  |
| c1ccc(CCNc2ccnc3ccccc23)cc1 [DR, N-Phenethylquinolin-4-amine] | 27.12 | 77.9 | 27.2 |  |  |  |  |  |  | 31.5 | 31.5 | 59.9 | 68.7 | 49.2 | 35.5 |  |
| CCCCCCOc1ccccc1CNc1ccnc2ccccc12 [DS, N-[2-(Hexyloxy)benzyl]quinolin-4-amine] | 56.67 | 35.6 | 25.5 | 70 | 70 | 86.4 | 97 | 97.1 | 98.6 |  |  |  |  |  |  |  |
| O=C(NCCCCCCCCNc1ccnc2ccccc12)c1ccccc1 [DY, N-[8-(Quinolin-4-ylamino)octyl]benzamide] | 45.25 | 88.9 | 60.5 |  |  |  |  |  |  |  |  |  |  |  |  | viability at 5 µM ([2]; 5 μM): 16.1%; viability at 5 µM ([3]; Homo sapiens, compound 5 μM alone, Wst1, vehicle = 100, read-out: No Chemo: percent cell survival): 16.1%; Doxorubicin 3.5 μM: percent cell survival ([3]; compound 5 μM + doxorubicin 3.5 μM): 21.2%; Oxaliplatin 100 μM: percent cell survival ([3]; compound 5 μM + oxaliplatin 100 μM): 20.6%; Paclitaxel 50 μM: percent cell survival ([3]; compound 5 μM + paclitaxel 50 μM): 23.3%; Vincristine 100 nM: percent cell survival ([3]; compound 5 μM + vincristine 100 nM): 18.3% |
| COc1cccc(C(=O)NCCCCCCCCNc2ccnc3ccccc23)c1 [DZ, 3-Methoxy-N-[8-(quinolin-4-ylamino)octyl]benzamide] | 73.5 | 23.7 | 17.4 | 84.8 | 84.8 | 85.6 | 86.7 | 71.8 | 89 |  |  |  |  |  |  |  |
| COc1ccc(C(=O)NCCCCCCCCNc2ccnc3ccccc23)cc1 [EA, 4-Methoxy-N-[8-(quinolin-4-ylamino)octyl]benzamide] | 73.48 | 31.1 | 36.8 | 108 | 108 | 87.8 | 89 | 73.5 | 84.5 |  |  |  |  |  |  |  |
| O=C(NCCCCCCCCNc1ccnc2ccccc12)c1ccccn1 [EE, N-[8-(Quinolin-4-ylamino)octyl]picolinamide] | 24.32 | 24 | 18.1 | 34 | 34 | 66.4 | 70.8 | 45.3 | 47.1 |  |  |  |  |  |  |  |
| O=C(NCCCCCCCCNc1ccnc2ccccc12)c1ccncc1 [EG, N-[8-(Quinolin-4-ylamino)octyl]isonicotinamide] | 60.59 | 34.7 | 27.7 | 92.2 | 92.2 | 91.3 | 96.2 | 95.3 | 88.5 |  |  |  |  |  |  |  |
| CCCCCCNc1ccnc2ccccc12 [EI, N-Hexylquinolin-4-amine] | 39.53 | 95 | 45.8 |  |  |  |  |  |  | 31.2 | 31.2 | 66.1 | 75.1 | 50.1 | 69.5 |  |
